Here are results for 32 compounds from US20230065745A1, “PIPERIDINE-2,6-DIONE DERIVATIVES WHICH BIND TO CEREBLON, AND METHODS OF USE THEREOF” (Captor Therapeutics S.A., priority 2019, published 2023).

Sequence of CRBN-DDB1 protein complex (Q96SW2 whole entry): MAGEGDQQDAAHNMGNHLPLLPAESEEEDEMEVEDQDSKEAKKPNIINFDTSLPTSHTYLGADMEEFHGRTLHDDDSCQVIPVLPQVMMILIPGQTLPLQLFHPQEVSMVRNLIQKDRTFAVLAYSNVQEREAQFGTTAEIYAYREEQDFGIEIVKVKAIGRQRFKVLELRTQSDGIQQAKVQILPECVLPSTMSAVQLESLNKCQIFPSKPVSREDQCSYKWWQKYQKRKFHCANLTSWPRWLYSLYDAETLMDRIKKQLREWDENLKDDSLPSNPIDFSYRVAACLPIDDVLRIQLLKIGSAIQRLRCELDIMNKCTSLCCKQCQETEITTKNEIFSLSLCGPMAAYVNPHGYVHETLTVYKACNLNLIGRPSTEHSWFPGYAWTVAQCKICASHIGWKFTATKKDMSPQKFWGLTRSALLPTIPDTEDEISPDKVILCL
Sequence of CRBN-DDB1 protein complex (Q16531 whole entry partner): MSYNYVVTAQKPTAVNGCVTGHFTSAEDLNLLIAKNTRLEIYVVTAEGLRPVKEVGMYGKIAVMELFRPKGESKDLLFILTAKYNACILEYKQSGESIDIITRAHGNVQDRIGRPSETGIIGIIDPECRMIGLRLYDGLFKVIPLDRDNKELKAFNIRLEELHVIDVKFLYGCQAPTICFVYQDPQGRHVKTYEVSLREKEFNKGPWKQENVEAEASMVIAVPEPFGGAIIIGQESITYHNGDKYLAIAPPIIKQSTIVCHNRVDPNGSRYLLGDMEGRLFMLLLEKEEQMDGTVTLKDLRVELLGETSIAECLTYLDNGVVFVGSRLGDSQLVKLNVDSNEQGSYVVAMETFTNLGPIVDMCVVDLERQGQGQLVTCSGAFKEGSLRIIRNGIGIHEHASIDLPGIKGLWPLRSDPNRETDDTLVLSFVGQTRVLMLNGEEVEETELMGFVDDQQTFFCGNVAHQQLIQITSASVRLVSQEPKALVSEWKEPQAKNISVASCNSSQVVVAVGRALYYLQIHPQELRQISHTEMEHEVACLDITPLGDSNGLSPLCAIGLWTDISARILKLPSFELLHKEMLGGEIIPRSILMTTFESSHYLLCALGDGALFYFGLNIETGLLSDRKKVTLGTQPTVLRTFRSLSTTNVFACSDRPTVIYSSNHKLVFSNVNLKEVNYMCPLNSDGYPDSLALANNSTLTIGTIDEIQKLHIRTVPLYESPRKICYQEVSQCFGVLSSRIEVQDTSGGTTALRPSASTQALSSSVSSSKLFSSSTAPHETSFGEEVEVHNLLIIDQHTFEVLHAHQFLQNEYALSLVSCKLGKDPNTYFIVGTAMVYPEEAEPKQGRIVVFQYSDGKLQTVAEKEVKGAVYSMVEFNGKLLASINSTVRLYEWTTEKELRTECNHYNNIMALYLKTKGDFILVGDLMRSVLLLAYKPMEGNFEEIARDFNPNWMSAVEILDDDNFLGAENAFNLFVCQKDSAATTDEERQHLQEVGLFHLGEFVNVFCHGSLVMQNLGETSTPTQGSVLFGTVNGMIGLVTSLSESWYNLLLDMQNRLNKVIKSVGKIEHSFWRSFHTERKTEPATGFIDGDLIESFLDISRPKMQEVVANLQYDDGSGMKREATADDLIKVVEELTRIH

The first experiment addresses CRBN-DDB1 protein complex (Homo sapiens, UniProt Q96SW2). Put plainly: Fluorescence Polarization (FP) assay, displacement of Cy5-labelled thalidomide. As to conditions: 25 nM CRBN-DDB1, 5 nM Cy5-labelled thalidomide, read-out: CRBN binding Ki. The procedure: CRBN-DDB1 protein complex was mixed with Cy5-labelled thalidomide and a compound to be tested (the “test compound”). […] The test solution was added to a 384-well assay plate.
The plate was spun-down (1 min, 1000 rpm, 22° C.) and then shaken using a VibroTurbulator for 10 min at room temperature (20-25° C.), with the frequency set to level 3. The assay plate with protein and the tracer was incubated for 60 min at room temperature (20-25° C.) prior to read-out with a plate reader.
The FP experiment was carried out with various concentrations of the test compounds in order to measure Ki values.
As to `Nc1ncc(C(=O)NC2CCC(=O)NC2=O)s1` (centres unmarked) [Compound 112, 2-amino-N-(2,6-dioxopiperidin-3-yl)thiazole-5-carboxamide], the Ki was in the range of 5 to 10 µM. On to `CC(C)(C)OC(=O)NCc1sccc1C(=O)NC1CCC(=O)NC1=O` (centres unmarked) [Compound 63, tert-butyl ((3-((2,6-dioxopiperidin-3-yl)carbamoyl)thiophen-2-yl)methyl)carbamate], for which the inhibition constant (Ki) was in the range of 10 to 50 µM. `COc1sc(Br)cc1C(=O)NC1CCC(=O)NC1=O` (centres unmarked) [Compound 34, 5-bromo-N-(2,6-dioxopiperidin-3-yl)-2methoxythiophene-3-carboxamide]: the inhibitory constant (Ki) was less than 5 µM. As for `CC(C)(C)OC(=O)NCc1csc(C(=O)NC2CCC(=O)NC2=O)c1` (centres unmarked) [Compound 51, tert-butyl ((5-((2,6-dioxopiperidin-3-yl)carbamoyl)thiophen-3-yl)methyl)carbamate], the inhibition constant (Ki) is less than 5 µM. For `CCOc1oc(C)nc1C(=O)NC1CCC(=O)NC1=O` (centres unmarked) [Compound 68, N-(2,6-dioxopiperidin-3-yl)-5-ethoxy-2-methyloxazole-4-carboxamide], the Ki is 10 to 50 µM. Same read-out and setting: under `COc1sc(C2CC2)cc1C(=O)NC1CCC(=O)NC1=O` (centres unmarked) [Compound 32, 5-cyclopropyl-N-(2,6-dioxopiperidin-3-yl)-2-methoxythiophene-3-carboxamide] stands less than 5 µM. Regarding `O=C1CCC(NC(=O)c2c[nH]c3nccc(Cl)c23)C(=O)N1` (centres unmarked) [Compound 97, 4-chloro-N-(2,6-dioxopiperidin-3-yl)-1H-pyrrolo[2,3-b]pyridine-3-carboxamide], the Ki was 5 to 10 µM. Still for that read-out and setting: under `CNc1scnc1C(=O)NC1CCC(=O)NC1=O` (centres unmarked) [Compound 78, N-(2,6-dioxopiperidin-3-yl)-5-(methylamino)thiazole-4-carboxamide] stands 10 to 50 µM. Same read-out and setting: under `O=C1CCC(NC(=O)c2ccoc2C2CC2)C(=O)N1` (centres unmarked) [Compound 47, 2-cyclopropyl-N-(2,6-dioxopiperidin-3-yl)furan-3-carboxamide] stands 10 to 50 µM; under `O=C1CCC(NC(=O)c2ccsc2-n2cccn2)C(=O)N1` (centres unmarked) [Compound 39, N-(2,6-dioxopiperidin-3-yl)-2-(1H-pyrazol-1-yl)thiophene-3-carboxamide], 10 to 50 µM; under `COc1sc(C(C)(C)C)cc1C(=O)NC1CCC(=O)NC1=O` (centres unmarked) [Compound 35, 5-(tert-butyl)-N-(2,6-dioxopiperidin-3-yl)-2-methoxythiophene-3-carboxamide], less than 5 µM. Still for that read-out and setting: in the case of `O=C1CCC(NC(=O)c2sc(Br)c3cccnc23)C(=O)N1` (centres unmarked) [Compound 96] it was less than 5 µM; in that of `O=C1CCC(NC(=O)c2cc(O)cs2)C(=O)N1` (centres unmarked) [Compound 53, N-(2,6-dioxopiperidin-3-yl)-4-hydroxythiophene-2-carboxamide], less than 5 µM; in that of `CCOc1sccc1C(=O)NC1CCC(=O)NC1=O` (centres unmarked) [Compound 28, N-(2,6-dioxopiperidin-3-yl)-2-ethoxythiophene-3-carboxamide], less than 5 µM. In the case of `O=C1CCC(NC(=O)c2csc(=O)[nH]2)C(=O)N1` (centres unmarked) [Compound 15, N-(2,6-dioxopiperidin-3-yl)-2-oxo-2,3-dihydrothiazole-4-carboxamide], the Ki fell in the range of 5 to 10 µM. On to `Cn1cc(C(=O)NC2CCC(=O)NC2=O)c2cccnc21` (centres unmarked) [Compound 98, N-(2,6-dioxopiperidin-3-yl)-1-methyl-1H-pyrrolo[2,3-b]pyridine-3-carboxamide], for which the Ki lay within 10 to 50 µM.

Take `COc1scnc1C(=O)NC1CCC(=O)NC1=O` (centres unmarked) [Compound 79, N-(2,6-dioxopiperidin-3-yl)-5-methoxythiazole-4-carboxamide]: the Ki lay within 5 to 10 µM. Regarding `NCc1ccc(C(=O)NC2CCC(=O)NC2=O)s1` (centres unmarked) [Compound 50, 5-(aminomethyl)-N-(2,6-dioxopiperidin-3-yl)thiophene-2-carboxamide], the Ki was 10 to 50 µM.

With `COc1sc(N)nc1C(=O)NC1CCC(=O)NC1=O` (centres unmarked) [Compound 80, 2-amino-N-(2,6-dioxopiperidin-3-yl)-5-methoxythiazole-4-carboxamide], the Ki is less than 5 µM. On to `O=C1CCC(NC(=O)c2c[nH]c3ncc(Cl)cc23)C(=O)N1` (centres unmarked) [Compound 99, 5-chloro-N-(2,6-dioxopiperidin-3-yl)-1H-pyrrolo[2,3-b]pyridine-3-carboxamide], for which the inhibition constant Ki lay within 5 to 10 µM.

For `O=C1CCC(NC(=O)c2ccsc2C2CC2)C(=O)N1` (centres unmarked) [Compound 66, 2-cyclopropyl-N-(2,6-dioxopiperidin-3-yl)thiophene-3-carboxamide], the Ki lay in the range of 10 to 50 µM. With `COc1sc(C)cc1C(=O)NC1CCC(=O)NC1=O` (centres unmarked) [Compound 30, N-(2,6-dioxopiperidin-3-yl)-2-methoxy-5-methylthiophene-3-carboxamide], the inhibition constant Ki is less than 5 µM. Turning to `COc1scc(C)c1C(=O)NC1CCC(=O)NC1=O` (centres unmarked) [Compound 29, N-(2,6-dioxopiperidin-3-yl)-2-methoxy-4-methylthiophene-3-carboxamide], the Ki lay in the range of 5 to 10 µM. With `CC(C)(C)OC(=O)NCc1ccc(C(=O)NC2CCC(=O)NC2=O)s1` (centres unmarked) [Compound 49, tert-butyl ((5-((2,6-dioxopiperidin-3-yl)carbamoyl)thiophen-2-yl)methyl)carbamate], the Ki is less than 5 µM. Regarding `NCc1csc(C(=O)NC2CCC(=O)NC2=O)c1` (centres unmarked) [Compound 52, 4-(aminomethyl)-N-(2,6-dioxopiperidin-3-yl)thiophene-2-carboxamide], the Ki was 10 to 50 µM. On to `O=C1CCC(NC(=O)c2ncsc2C2CC2)C(=O)N1` (centres unmarked) [Compound 82, 5-Cyclopropyl-N-(2,6-dioxopiperidin-3-yl)thiazole-4-carboxamide], for which the Ki was 10 to 50 µM. Still for that read-out and setting: in the case of `COc1sc(-c2ccccc2)cc1C(=O)NC1CCC(=O)NC1=O` (centres unmarked) [Compound 33, N-(2,6-dioxopiperidin-3-yl)-2-methoxy-5-phenylthiophene-3-carboxamide] it was less than 5 µM; in that of `CC(C)(C)OC(=O)NCc1nc(C(=O)NC2CCC(=O)NC2=O)cs1` (centres unmarked) [Compound 77, tert-butyl ((4-((2,6-dioxopiperidin-3-yl)carbamoyl)thiazol-2-yl)methyl)carbamate], 5 to 10 µM.

Another experiment has as its system IKZF1. Put plainly: IKZF1 degradation assay, H929 cell line (Western blot densitometry). Format: cell-based. Particulars: 20 μM. The procedure:
Cells were seeded on 6- or 12-well plates, and the compounds to be tested were added at the desired concentration range. […] After 6 or 24 h incubation (3TC, 5% CO2), cells were harvested, washed and cell lysates were prepared using RIPA lysis buffer. The amount of protein was determined via BCA assay, and the appropriate quantity was then loaded on the precast gel for the protein separation. After primary and secondary Ab staining, the membranes were washed and signals developed. The densitometry analysis was implemented to obtain the numeric values used later in the protein level evaluation process. […] The treatment with all compounds was carried out for 24 h.
As to `O=C1CCC(NC(=O)c2ccsc2-n2cccc2)C(=O)N1` (centres unmarked) [Compound 41, N-(2,6-dioxopiperidin-3-yl)-2-(1H-pyrrol-1-yl)thiophene-3-carboxamide], the “% of IKZF1 protein reduction, IKZF 1 (24 H, 20 μM)” value (“% of IKZF1 protein reduction” for short) is ≤25% (≤25% for 0-25% of IKZF1 protein reduction). As to `O=C1CCC(NC(=O)c2cnc(C(F)(F)F)s2)C(=O)N1` (centres unmarked) [Compound 72, N-(2,6-dioxopiperidin-3-yl)-2-(trifluoromethyl)thiazole-5-carboxamide], the “% of IKZF1 protein reduction” value is ≤25% (≤25% for 0-25% of IKZF1 protein reduction).

Turning to `CC(=O)Nc1sc2c(c1C(=O)NC1CCC(=O)NC1=O)CCCC2` (centres unmarked) [Compound 105, N-(2,6-dioxopiperidin-3-yl)-2-acetamido-4,5,6,7-tetrahydro-1-benzothiophene-3-carboxamide], the “% of IKZF1 protein reduction” value is recorded as ≤25% (≤25% for 0-25% of IKZF1 protein reduction). As to `O=C1CCC(NC(=O)c2cc(Cl)sc2NC(=O)c2ccccc2)C(=O)N1` (centres unmarked) [Compound 45, 2-benzamido-5-chloro-N-(2,6-dioxopiperidin-3-yl)thiophene-3-carboxamide], the “% of IKZF1 protein reduction” value is >25% (>25% for 26-74% of IKZF1 protein reduction).

One may read the Ki as the dissociation constant of the complex between target and ligand, obtained from inhibition or displacement.
